Data taken from patent publication US4064227A, “Radioimmunoassay method for the determination of cardiotonic glycosides” (Mallinckrodt, Inc., priority 1975, dated 1977).
“And” between values parts separate entries of the source, which are not always exact repeats. Equal values may be shown once.

What was measured:
[1] = tested on: digoxin antiserum (antibody); experiment: radioimmunoassay: % of I-125 hapten bound by antibody in presence of digoxin standards (standard curve); type: binding, goats; settings: for Mean % bound: mean of triplicate; for % bound: single vial
Protocol: (§1) The relative amounts of antibody bound radioactive hapten and unbound radioactive hapten are then determined. Preferably, this is accomplished by a determination of the radioactive hapten in each vial by means of a gamma counter. The count rate of vial components following removal of the resin strip reflects the serum concentration of cardiotonic glycoside. A precount determination of radioactivity in the vial is made at the outset of the test on a gamma counter. The percent of radioactive hapten which is antibody bound is then calculated as follows: [formula] With increasing quantities of nonradioactive cardiotonic glycoside (patient or standard), the percent radioactive hapten bound by the antibody decreases. Based upon this principle, a standard curve is prepared by plotting the percent radioactive hapten bound by each of a series of standard sera versus their respective cardiotonic glycosides concentration. The patient's total circulating serum cardiotonic glycoside concentration is then readily determined by comparing the percent radioactive hapten bound in the patient's serum sample to the standard curve.
This serum is produced in goats by the monthly injection of 7.5 mg of BSA-Digoxin conjugate emulsified in complete Freunds adjuvant. The conjugate is prepared by periodate oxidation according to Butler and Chen, Biochem J. 1970. Twenty mg are dissolved in one ml of phosphate buffer solution which is added dropwise with rapid mixing through a 1.0 ml tuberculin syringe to an equal volume of complete adjuvant. The material is injected into multiple subcutaneous sites.
The final dilutions are such that they insure binding eq 60 ± 5% of 3-0-succinyl digoxigenin-L-tyrosine* and displacement by non-radioactive digoxin.
A. Reaction vials: To 99 parts phosphate buffer solution add 1 part of reagent alcohol containing 7-100 nCi/10 ul of 3-0-succinyl digoxigenin tyrosine. Mix mechanically for 1 minute and transfer to an automatic pipette or dispensing device. 1 ml of the above prepared combination reagent is transferred to each reaction vial and the vials are stored at -20° C. (or lower).
C. Digoxin, antiserum diluted as described above to contain the dilution of antibody binding 60% of a 7-100 nc quantity of 3-0-succinyl digoxigenin tyrosine 125-I.
(§2) The following procedure is employed in carrying out the radioimmumoassay method of the invention to prepare a standard curve.
(§3) 1. The required number of reaction vials is removed from the freezer and the net precount per minute is determined for each vial during or after thawing. The thawed reaction vials are gently agitated. Preferably, the test is carried out in triplicate.
(§4) 2. 50 microliters each of the 0, 0.4, 1.0, 2.0, 3.0 and 5.0 ng/ml standard is added to 18 reaction vials.
(§5) 3. 50 microliters of antiserum is added to each of the reaction vials and the caps replaced.
(§6) 4. The vial contents are mixed by rotating for one minute on a rotator at 12-14 rpm or by gently agitating the vial rack.
(§7) 5. The reaction vials are incubated at room temperature for 30 minutes ± 5 minutes.
(§8) 6. One ion-exchange resin strip is inserted in each reaction vial and the caps replaced.
(§9) 7. The reaction vials are rotated for 30 minutes at ambient temperature (20° C. to 30° C.) on a rotator which produces end-over-end mixing at 12-14 rpm.
(§10) 8. The resin strips are carefully removed and discarded. The resin strips should be allowed to drain over the vials by touching the strip lightly on top of the vial prior to replacing the vial caps.
(§11) 9. The net postcount per minute is determined for each reaction vial.
(§12) 10. The % I-125 bound is calculated by dividing the net CPM postcount by the net CPM precount and multiplying by 100. [formula]
11. The values obtained should range from 60 + 5% at the 0 ng/ml concentration of digoxin/ml of serum to 20 ± 5% at 10 ng/ml.
The above procedure was followed for 3-succinyl-digoxigenin-L-tyrosin, 3-adipyl-digoxigenin-L-tryosine and 3-carbodigoxigenin-glycyl-L-tyrosine. […]

[2] = tested on: antiserum containing antibody; experiment: radioimmunoassay: % of I-125 hapten bound by antibody in presence of digitoxin standards (standard curve); type: binding; settings: for Mean % bound: mean of triplicate; for % bound: single vial
Protocol: as §1
These are produced by drying U.S.P. Reference Digitoxin at 100° C. for 2 hours in a vacuum desiccator. 50 mg is quantitatively transferred to a 100 ml volumetric flask and brought to that volume with methyl alcohol at 25° C. After mixing, 1 ml is transferred to another 100 ml volumetric flask and diluted to 10 ml with methyl alcohol. This 10 ml is diluted to 100 ml with distilled water. 1 ml is transferred to a 50 ml volumetric flask and diluted to 50 ml with digitoxin free normal human serum containing 0.1% NaN3. The product contains 100 ng/ml of digitoxin. This is diluted with normal human serum containing to 0.1% NaN3 to form a […] standard.
as §2, §3, §4, §5, §6, §7, §8, §9, §10, §11, §12
Essentially the same procedure was followed for 3-succinyl-digitoxigenin-L-tyrosine except 25 microliters of each digitoxin standard was used.

[3] = digitoxin standard 0.0 ng/ml, 25 microliters
[4] = digitoxin standard 4.0 ng/ml, 25 microliters
[5] = digitoxin standard 10.0 ng/ml, 25 microliters
[6] = digitoxin standard 20.0 ng/ml, 25 microliters
[7] = digitoxin standard 30.0 ng/ml, 25 microliters
[8] = digitoxin standard 50.0 ng/ml, 25 microliters
[9] = digitoxin standard 100.0 ng/ml, 25 microliters

With `C[C@]12CC[C@H](OC(=O)CCCCC(=O)N[C@@H](Cc3ccc(O)cc3)C(=O)O)C[C@H]1CC[C@@H]1[C@@H]2C[C@@H](O)[C@]2(C)[C@@H](C3=CC(=O)OC3)CC[C@]12O` [3-adipyl-digoxigenin-L-tyrosine] the Mean % bound ([1]; control, no antibody) was 3.9%, the “% bound” value ([1]; control, no antibody) was 4.0% and 3.6% and the Mean % bound ([1]; digoxin standard 0 ng/ml) was 65.2%. For the same compound, the “% bound” value ([1]; digoxin standard 0 ng/ml) was 66.4% and 64.8% and 64.3%, the Mean % bound ([1]; digoxin standard 1.0 ng/ml) was 46.8% and the “% bound” value ([1]; digoxin standard 1.0 ng/ml) was 46.1% and 47.0% and 47.3%. For the same compound, the Mean % bound ([1]; digoxin standard 2.0 ng/ml) was 33.4%, the “% bound” value ([1]; digoxin standard 2.0 ng/ml) was 34.8% and 32.2% and 33.3% and the Mean % bound ([1]; digoxin standard 3.0 ng/ml) was 25.4%. For the same compound, the “% bound” value ([1]; digoxin standard 3.0 ng/ml) was 26.1% and 25.1% and 25.0%, the Mean % bound ([1]; digoxin standard 5.0 ng/ml) was 17.2% and the “% bound” value ([1]; digoxin standard 5.0 ng/ml) was 16.9% and 16.5% and 18.0%. The Mean % bound ([1]; digoxin standard .4 ng/ml) was 57.5% and the “% bound” value ([1]; digoxin standard .4 ng/ml) was 57.8% and 57.4% and 57.2%.

In the case of `C[C@]12CC[C@H](OC(=O)NCC(=O)N[C@@H](Cc3ccc(O)cc3)C(=O)O)C[C@H]1CC[C@@H]1[C@@H]2C[C@@H](O)[C@]2(C)[C@@H](C3=CC(=O)OC3)CC[C@]12O` [3-carbodigoxigenin-glycyl-L-tyrosine], the Mean % bound ([1]; control, no antibody) is reported as 5.2%, the “% bound” value ([1]; control, no antibody) is reported as 5.5% and 5.4% and 4.8% and the Mean % bound ([1]; digoxin standard 0 ng/ml) is reported as 56.6%. For the same compound, the “% bound” value ([1]; digoxin standard 0 ng/ml) was 57.0% and 55.8% and 56.9%, the Mean % bound ([1]; digoxin standard 1.0 ng/ml) was 41.3% and the “% bound” value ([1]; digoxin standard 1.0 ng/ml) was 39.4% and 41.7% and 42.9%. The Mean % bound ([1]; digoxin standard 2.0 ng/ml) was 31.6%, the “% bound” value ([1]; digoxin standard 2.0 ng/ml) was 31.5% and 31.7% and 31.4% and the Mean % bound ([1]; digoxin standard 3.0 ng/ml) was 25.3%. For the same compound, the “% bound” value ([1]; digoxin standard 3.0 ng/ml) was 25.5% and 23.3% and 26.9%, the Mean % bound ([1]; digoxin standard 5.0 ng/ml) was 17.9% and the “% bound” value ([1]; digoxin standard 5.0 ng/ml) was 18.3% and 18.2% and 17.1%. The Mean % bound ([1]; digoxin standard .4 ng/ml) was 51.3% and the “% bound” value ([1]; digoxin standard .4 ng/ml) was 50.8% and 51.4% and 51.8%.

With `C[C@]12CC[C@H](OC(=O)CCC(=O)N[C@@H](Cc3ccc(O)cc3)C(=O)O)C[C@H]1CC[C@@H]1[C@@H]2CC[C@]2(C)[C@@H](C3=CC(=O)OC3)CC[C@]12O` [3-succinyl digitoxigenin-L-tyrosine] the Mean % bound ([2]; control, no antibody) was 18.8%, the “% bound” value ([2]; control, no antibody) was 18.0% and 18.9% and 19.4% and the Mean % bound [2, 3] was 70.2%. The “% bound” value [2, 3] was 70.8% and 70.7% and 69.0%, the Mean % bound [2, 4] was 67.3% and the “% bound” value [2, 4] was 67.3% and 67.6% and 66.9%. The Mean % bound [2, 5] was 59.9%, the “% bound” value [2, 5] was 59.9% and 60.2% and 59.5% and the Mean % bound [2, 6] was 46.8%. The “% bound” value [2, 6] was 45.8% and 47.3% and 47.2%, the Mean % bound [2, 7] was 35.6% and the “% bound” value [2, 7] was 33.9% and 36.7% and 36.2%. The Mean % bound [2, 8] was 27.7%, the “% bound” value [2, 8] was 26.5% and 29.4% and 27.1% and the Mean % bound [2, 9] was 22.9%. The “% bound” value [2, 9] was 22.2% and 22.5% and 24.0%.

With `C[C@]12CC[C@H](OC(=O)CCC(=O)N[C@@H](Cc3ccc(O)cc3)C(=O)O)C[C@H]1CC[C@@H]1[C@@H]2C[C@@H](O)[C@]2(C)[C@@H](C3=CC(=O)OC3)CC[C@]12O` [3-succinyl-digoxigenin-L-tyrosine] the Mean % bound ([1]; control, no antibody) was 5.5%, the “% bound” value ([1]; control, no antibody) was 5.7% and 6.0% and 4.7% and the Mean % bound ([1]; digoxin standard 0 ng/ml) was 66.8%. The “% bound” value ([1]; digoxin standard 0 ng/ml) was 67.2% and 65.4% and 67.7%, the Mean % bound ([1]; digoxin standard 1.0 ng/ml) was 49.0% and the “% bound” value ([1]; digoxin standard 1.0 ng/ml) was 48.6% and 49.8%. The Mean % bound ([1]; digoxin standard 2.0 ng/ml) was 35.5%, the “% bound” value ([1]; digoxin standard 2.0 ng/ml) was 35.0% and 34.6% and 36.9% and the Mean % bound ([1]; digoxin standard 3.0 ng/ml) was 27.2%. The “% bound” value ([1]; digoxin standard 3.0 ng/ml) was 27.4% and 26.7% and 27.5%, the Mean % bound ([1]; digoxin standard 5.0 ng/ml) was 19.6% and the “% bound” value ([1]; digoxin standard 5.0 ng/ml) was 19.9% and 19.3% and 19.6%. The Mean % bound ([1]; digoxin standard .4 ng/ml) was 58.5% and the “% bound” value ([1]; digoxin standard .4 ng/ml) was 59.3% and 57.2% and 59.0%.
